Article PMC6815936, “A Pan-Cyclophilin Inhibitor, CRV431, Decreases Fibrosis and Tumor Development in Chronic Liver Disease Models” (The Journal of Pharmacology and Experimental Therapeutics, 2019)

Tested on: CCl4-induced liver fibrosis in C57BL/6 mice
Test: Carbon tetrachloride mouse model of liver fibrosis
Type: in vivo
Conditions: OCA 10 mg/kg per day; combination 50 and 10 mg/kg per day, oral, 6 weeks
Protocol: Carbon tetrachloride (CCl4)–induced liver fibrosis was conducted in C57BL/6J male mice starting at 7 weeks of age. Mice were injected intraperitoneally twice per week with 0.5–0.75 ml/kg CCL4 (289116; Sigma-Aldrich) and corn oil (0.05 ml total dose per mouse) for 6 weeks. CRV431, obeticholic acid (OCA, HY-12222; MedChemExpress), and vehicle were administered by daily oral gavage for the entire duration of the study. CRV431 and OCA were dissolved in a self-microemulsifying drug vehicle ([Trepanier et al., 2018]), and then diluted with PBS. CRV431 was administered at 50 mg/kg per day, and OCA was administered at 10 mg/kg per day.
Blood and livers were collected at the end of the NASH and CCl4 studies. In some studies, serum or plasma was isolated from freshly-collected blood, whereas in other studies blood was frozen for later analysis of CRV431 concentration. Livers were immersion-fixed in zinc-formalin and paraffin-embedded for histologic processing. Liver sections were stained with hematoxylin and eosin for assessment of inflammation, ballooning, and steatosis, and with sirius red for assessment of collagen I and III (fibrosis). Sirius red staining was quantified by blinded analysis in one section per liver using ImageJ software. […]

## CC[C@H]1[C@@H](O)[C@@H]2[C@H](CC[C@]3(C)[C@@H]([C@H](C)CCC(=O)O)CC[C@@H]23)[C@@]2(C)CC[C@@H](O)C[C@@H]12 [OCA, obeticholic acid, reference compound]
  effect on liver fibrosis, sirius red staining (in words): no statistically significant effect
